Marks after values point to notes of the source that are not given here.
How the values were obtained:
[1] = tested on: J774A.1 cells; settings: positive control, 2 mM hydrogen peroxide, 4 h
Method: (§1) The mouse macrophage cell line J774A.1 was grown in Dulbecco’s modified Eagle medium (DMEM) (Thermo Fisher Scientific, Waltham, MA) supplemented with 4.5 g/ml glucose, 10% fetal bovine serum (FBS), and 100 U/ml penicillin-streptomycin (Sigma-Aldrich, St. Louis, MO). HL60 (ATCC CCL240) cells were obtained from the American Type Culture Collection and cultured in Iscove’s modified Dulbecco’s medium (Sigma-Aldrich) supplemented with 20% fetal bovine serum (FBS) (Sigma-Aldrich).
(§2) The apoptotic activity of the compounds was determined using the phycoerythrin (PE) annexin V/dead cell apoptosis kit with Sytox green for flow cytometry (Invitrogen, Carlsbad, CA). Cells were grown in 12-well flat-bottom microtiter plates at an initial density 2 × 10^5 cells in 1.5-ml medium per well for 24 h. Following the incubation period, spent medium was replaced with fresh medium containing the desired concentration of the test compound and incubated for another 18 h. After trypsinization, cells were harvested by centrifuging at 250 × g for 4 min, and the cell pellet was suspended in 100 μl of binding buffer supplemented with 1 μl Sytox and 5 μl annexin V, followed by incubation at 37°C for 15 min. Samples were then diluted by adding 400-μl binding buffer, and flow cytometry was performed using a FACScalibur flow cytometer (Becton, Dickinson, Franklin Lakes, NJ), measuring the fluorescence emissions at 530 nm and 575 nm.

[2] = tested on: HL60 cells; settings: HL60, positive control, 2 mM hydrogen peroxide, 4 h
Method: as §1, §2

[3] = tested on: TIGK cells; settings: positive control, 2 mM hydrogen peroxide, 4 h;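 further: flow cytometry of cells stained with PE annexin V plus Sytox green, with untreated or 0.1% DMSO-exposed cells as negative controls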
Method: as §1, §2

OO [Medium/H2O2, hydrogen peroxide, reference compound]
Early apoptosis (%) [1]: 1.3% | Late apoptosis/necrosis (%) [1]: 34.7% | Live cells (%) [1]: 41.9% | Early apoptosis (%) [2]: 12.3% | Late apoptosis/necrosis (%) [2]: 31.4% | Live cells (%) [2]: 52.7% | Early apoptosis (%) [3]: 4.9% | Late apoptosis/necrosis (%) [3]: 21.9* % | Live cells (%) [3]: 56.6%

Source: publication PMC7577153, “Identification of Small-Molecule Inhibitors Targeting Porphyromonas gingivalis Interspecies Adherence and Determination of Their In Vitro and In Vivo Efficacies” (Antimicrobial Agents and Chemotherapy, 2020)
